Assay results taken from patent publication US10898459B2, “Method of treating chronic kidney disease” (Panion & BF Biotech Inc., priority 2006, dated 2021).

Experiments:
[1] = 37° C.; cited from earlier work

Row | Substance | Intrinsic Dissolution Rates (37° C., solution of pH 8) [mg/cm^2/min] | other results
1 | ferric citrate [PAN031203A] | 3.82 | 
2 | ferric citrate [PAN031203B] | 4.00 | 
3 | ferric citrate [PAN031203C] | 2.68 | 
4 | ferric citrate [PAN031203D] | 2.95 | 
5 | ferric citrate [PAN031203E] | 3.13 | 
6 | ferric citrate [STM-134, reference compound] | 1.88 | Mean Intrinsic Dissolution Rates (37° C., solution of pH 8): 1.88 mg/cm^2/min; Mean Dissolution Rates (Table 2, one value for the pair of samples -1 and -2, listed as STM-134-1): 2.47 mg/cm2/min
7 | ferric citrate [crystalline ferric citrate] |  | rate of dissolution (time) [1]: 10 to 12 h
